Data on 31 molecules can be found in US6476047B2, “Anellated dihydropyridines for the treatment of chronic pain” (Boehringer Ingelheim Pharma KG, priority 2000, dated 2002).

Counter-ions that a name gives are not always drawn.

Series [1] addresses T1, N-type calcium channels in HEK-293 cell (Homo sapiens, UniProt Q00975).
T1 construct: expressed in transfected cells; host or cells: HEK-293 (clone HEK-293-N26)
Kind of series: Test A: Calcium imaging, inhibition of N-type calcium channels (FLUO-3, 80 mM K+ depolarisation). It counts as cell-based. Conditions: FLUO-3 charged recombinant HEK-293 cells, potassium depolarisation (80 mM K+). The text has this:
(§1) The concentration of the half-maximum inhibition (IC50-values) for the selected substances is in the submicro- to micromolar range. Independently of this optical method of measurement, the inhibitory effect on the N-type calcium channels was confirmed independently, by an electrophysiological method, using the patch-clamp technique on the same type of cells (Test B).
Inhibition of N-type calcium channels in HEK-293 cell

For series [2], the target named is T2, N-type calcium channel in HEK-293-N26 cells (Homo sapiens, UniProt Q00975).
T2 construct: expressed in transfected cells; host or cells: HEK-293 (clone HEK-293-N26)
T2 sequence (Q00975 whole entry): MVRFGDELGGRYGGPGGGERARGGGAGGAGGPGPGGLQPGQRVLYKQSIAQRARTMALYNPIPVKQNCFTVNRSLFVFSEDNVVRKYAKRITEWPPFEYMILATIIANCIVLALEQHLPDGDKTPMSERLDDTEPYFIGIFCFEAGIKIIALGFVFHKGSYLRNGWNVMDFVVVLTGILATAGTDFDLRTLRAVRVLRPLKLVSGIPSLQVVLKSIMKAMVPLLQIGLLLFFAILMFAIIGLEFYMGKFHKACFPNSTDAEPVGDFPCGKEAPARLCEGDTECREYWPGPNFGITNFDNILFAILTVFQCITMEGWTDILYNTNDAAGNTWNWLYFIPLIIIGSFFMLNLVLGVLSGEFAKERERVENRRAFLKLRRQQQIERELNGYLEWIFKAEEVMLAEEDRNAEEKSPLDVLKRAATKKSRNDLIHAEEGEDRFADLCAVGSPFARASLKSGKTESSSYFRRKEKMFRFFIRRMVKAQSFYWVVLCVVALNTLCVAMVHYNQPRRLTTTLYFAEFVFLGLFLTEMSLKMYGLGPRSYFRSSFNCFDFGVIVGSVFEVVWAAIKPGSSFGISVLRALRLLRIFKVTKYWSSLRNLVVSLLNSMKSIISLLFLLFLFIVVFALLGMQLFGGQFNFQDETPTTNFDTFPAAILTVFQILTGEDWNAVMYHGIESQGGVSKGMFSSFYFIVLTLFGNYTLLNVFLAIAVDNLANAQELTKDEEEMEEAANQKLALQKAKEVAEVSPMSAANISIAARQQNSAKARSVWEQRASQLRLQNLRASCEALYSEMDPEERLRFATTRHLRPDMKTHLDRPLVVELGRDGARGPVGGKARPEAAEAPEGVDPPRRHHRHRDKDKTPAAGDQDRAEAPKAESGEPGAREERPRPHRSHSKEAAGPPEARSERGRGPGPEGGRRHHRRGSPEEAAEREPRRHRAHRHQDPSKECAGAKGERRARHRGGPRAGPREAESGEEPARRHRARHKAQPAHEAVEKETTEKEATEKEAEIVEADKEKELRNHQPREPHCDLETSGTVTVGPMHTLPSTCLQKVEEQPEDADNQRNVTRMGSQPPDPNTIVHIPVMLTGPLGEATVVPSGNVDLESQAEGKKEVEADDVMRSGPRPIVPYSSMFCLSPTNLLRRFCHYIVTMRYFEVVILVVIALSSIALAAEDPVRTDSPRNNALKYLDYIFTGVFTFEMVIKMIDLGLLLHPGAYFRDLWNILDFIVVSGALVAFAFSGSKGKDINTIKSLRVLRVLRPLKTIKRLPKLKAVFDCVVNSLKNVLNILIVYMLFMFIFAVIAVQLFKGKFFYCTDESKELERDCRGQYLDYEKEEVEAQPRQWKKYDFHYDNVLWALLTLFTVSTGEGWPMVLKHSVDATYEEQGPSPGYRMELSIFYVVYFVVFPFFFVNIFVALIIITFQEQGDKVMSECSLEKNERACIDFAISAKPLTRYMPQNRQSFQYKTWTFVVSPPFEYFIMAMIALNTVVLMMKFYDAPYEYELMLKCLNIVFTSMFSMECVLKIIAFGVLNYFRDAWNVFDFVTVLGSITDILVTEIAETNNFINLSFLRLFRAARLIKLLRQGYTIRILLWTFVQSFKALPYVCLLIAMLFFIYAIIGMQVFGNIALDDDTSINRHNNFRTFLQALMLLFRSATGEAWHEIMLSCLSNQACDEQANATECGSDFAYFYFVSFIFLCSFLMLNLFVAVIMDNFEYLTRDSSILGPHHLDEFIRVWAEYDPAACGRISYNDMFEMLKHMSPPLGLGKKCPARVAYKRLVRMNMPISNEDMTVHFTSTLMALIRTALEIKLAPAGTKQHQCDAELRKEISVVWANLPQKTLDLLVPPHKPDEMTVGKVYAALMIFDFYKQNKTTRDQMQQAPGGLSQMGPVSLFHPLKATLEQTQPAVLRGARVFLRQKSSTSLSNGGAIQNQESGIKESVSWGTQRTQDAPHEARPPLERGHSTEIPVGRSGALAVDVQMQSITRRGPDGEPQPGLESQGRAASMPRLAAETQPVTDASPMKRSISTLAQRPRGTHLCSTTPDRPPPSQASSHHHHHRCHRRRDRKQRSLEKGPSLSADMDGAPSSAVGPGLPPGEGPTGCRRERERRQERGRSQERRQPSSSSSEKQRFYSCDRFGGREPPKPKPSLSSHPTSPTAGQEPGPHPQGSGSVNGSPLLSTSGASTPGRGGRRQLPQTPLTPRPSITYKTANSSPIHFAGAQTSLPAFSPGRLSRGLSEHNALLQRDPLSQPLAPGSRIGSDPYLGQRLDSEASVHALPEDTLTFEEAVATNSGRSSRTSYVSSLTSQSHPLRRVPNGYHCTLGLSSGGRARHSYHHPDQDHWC
T2 sequence (P54289 25-956 partner limits assumed): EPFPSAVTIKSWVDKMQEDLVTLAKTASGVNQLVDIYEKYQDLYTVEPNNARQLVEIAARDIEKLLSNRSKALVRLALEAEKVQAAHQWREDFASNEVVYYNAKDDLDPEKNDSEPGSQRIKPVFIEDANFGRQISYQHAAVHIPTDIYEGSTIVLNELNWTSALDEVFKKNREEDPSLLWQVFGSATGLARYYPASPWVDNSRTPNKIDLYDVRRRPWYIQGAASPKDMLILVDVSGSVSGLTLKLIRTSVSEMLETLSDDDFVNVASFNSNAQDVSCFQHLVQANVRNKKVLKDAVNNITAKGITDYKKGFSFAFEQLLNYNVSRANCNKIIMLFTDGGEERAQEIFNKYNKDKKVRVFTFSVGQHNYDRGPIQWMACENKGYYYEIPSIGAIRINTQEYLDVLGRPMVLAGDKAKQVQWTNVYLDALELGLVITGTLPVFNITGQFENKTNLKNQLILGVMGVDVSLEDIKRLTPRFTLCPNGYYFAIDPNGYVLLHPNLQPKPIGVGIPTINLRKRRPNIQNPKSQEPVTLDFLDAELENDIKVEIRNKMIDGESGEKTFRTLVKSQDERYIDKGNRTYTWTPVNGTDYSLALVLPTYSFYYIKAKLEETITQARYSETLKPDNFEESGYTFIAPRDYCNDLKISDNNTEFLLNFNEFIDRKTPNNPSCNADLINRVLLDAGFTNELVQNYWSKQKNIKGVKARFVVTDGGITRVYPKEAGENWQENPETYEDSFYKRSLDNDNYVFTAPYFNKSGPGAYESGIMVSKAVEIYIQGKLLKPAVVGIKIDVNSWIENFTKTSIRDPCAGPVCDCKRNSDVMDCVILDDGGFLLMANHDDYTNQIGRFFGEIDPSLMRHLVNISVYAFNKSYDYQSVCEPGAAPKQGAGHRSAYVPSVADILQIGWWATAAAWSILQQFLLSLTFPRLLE
T2 sequence (P54289 957-1103 partner limits assumed): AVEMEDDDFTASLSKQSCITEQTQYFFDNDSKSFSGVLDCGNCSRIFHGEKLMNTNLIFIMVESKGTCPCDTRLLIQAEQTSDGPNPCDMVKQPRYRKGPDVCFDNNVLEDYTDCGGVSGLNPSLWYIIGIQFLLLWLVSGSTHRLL
T2 sequence (P54284 whole entry partner): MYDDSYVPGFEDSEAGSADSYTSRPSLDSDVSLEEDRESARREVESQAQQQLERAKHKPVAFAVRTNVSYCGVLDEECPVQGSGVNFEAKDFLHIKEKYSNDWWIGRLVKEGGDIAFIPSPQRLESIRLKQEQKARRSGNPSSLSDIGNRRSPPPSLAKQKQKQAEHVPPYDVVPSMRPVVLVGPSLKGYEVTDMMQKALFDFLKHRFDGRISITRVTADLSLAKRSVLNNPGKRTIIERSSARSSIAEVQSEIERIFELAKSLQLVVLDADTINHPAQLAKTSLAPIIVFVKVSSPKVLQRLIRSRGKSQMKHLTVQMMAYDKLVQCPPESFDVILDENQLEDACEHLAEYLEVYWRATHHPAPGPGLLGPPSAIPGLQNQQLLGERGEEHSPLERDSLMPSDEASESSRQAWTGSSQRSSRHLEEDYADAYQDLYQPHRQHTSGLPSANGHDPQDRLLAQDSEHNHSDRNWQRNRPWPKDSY
Kind of series: Test B: Patch-clamp tests, N-type calcium channel blockade. It counts as cell-based.
Text: as §1
Test B: Patch-clamp Tests
N-type calcium channel blockade in HEK-293-N26 cells
Background: The patch-clamp technique gives a direct electrical read-out from membranes.

Series [3] has as its system rats. Briefly: Test C: Formalin paw test. It counts as in vivo. Conditions: po, rat, p.o., read-out: ED50 values Test C, inhibition of flinching. The protocol: Formalin Paw Test (Test C)
Male rats (Chbb: THOM) weighing 250-300 grams are used. 20 μl of a 2% formaldehyde solution is injected into the plantar region of the right hind paw. Immediately afterwards, the number of flinches (spasms of the affected hind paw) and the time spent licking the affected paw are recorded. After 5 minutes in each case the values are collated into epochs. Time-activity curves for flinches and licking are plotted from the epoch values. Typically, two phases of the formalin activity (flinches, licking) are observed. A first phase of 0-10 minutes and a second phase of 10-60 minutes. Between the two phases the number of flinches and the duration of licking fall towards 0 (interphase). The areas under the curve for the first phase and for the second phase are determined from the timeactivity curves. Usually 5 animals are used in each case for the control, placebo and dose of active substance. The results of the doses of active substance are compared with those of the control and ED50 values are calculated. ED50 is the dose at which the control values are inhibited by 50%.
Test C: Formalin-paw Test (Rat)
Inhibition of flinching (ED50 values in mg/kg; p.o.)

The test system of series [4] is rats. Briefly: Test D: Chronic Constriction Injury (CCI, Bennett model), mechanohyperalgesia. It counts as in vivo. Conditions: po, rat. An excerpt:
Chronic Constriction Injury (CCI, Bennett Model) (Test D)
The principle of the method is producing hyperalgesia and allodynia in the plantar region (the sole of the hind paw). Sprague-Dawley rats (Harlan) weighing 250-350 grams are used.
Under anaesthetic, four loose ligatures are placed on the sciatic nerve of the left hind paw at intervals of 2.5 mm in such a way that the perinerval circulation is affected but not prevented. This leads to extravasation and oedema, resulting in neuropathy of the nerves which innervate the planter region. The right hind paw is treated in the same way without the ligatures. Control tests for allodynia and/or hyperalgesia are carried out without the administration of any substance before and 8-10 days after the operation. Then substance tests are carried out at intervals of 2-3 days. The effects of the substance on the various parameters and ED50 values are calculated (=doses which inhibit by 50% the allodynic or hyperalgesic effects of the stimulation).
Mechano-hyperalgesia (Pin Prick)
The animals are placed in cages with a wire mesh base. Using a blunt needle (e.g. a large safety pin) the skin of the sole of the paw (Plantar-region) is touched so that an indentation is only just produced. Similarly, the sole of the paw is pinched gently with forceps. […] The number and duration of positive reactions of the operated and control paws are measured. […]

T1 sequence (Q00975 whole entry): as the sequence (Q00975 whole entry) above
T1 sequence (P54289 25-956 partner limits assumed): as the sequence (P54289 25-956 partner limits assumed) above
T1 sequence (P54289 957-1103 partner limits assumed): as the sequence (P54289 957-1103 partner limits assumed) above
T1 sequence (P54284 whole entry partner): as the sequence (P54284 whole entry partner) above

In the case of `COc1cc2c(cc1OC)C(C)(C)CN=C2c1ccc(Oc2cc(C(F)(F)F)cc(C(F)(F)F)c2)cc1` [Example 7], the figures for the IC50 in series [1] and in series [2] were 1260 nM and 1000 nM, respectively.

In turn, `COc1cc2c(cc1OC)C(C)(C)CN=C2c1ccc(Oc2cc(C(F)(F)F)cc(C(F)(F)F)c2)cc1` (as salt: salt) [Example 7] displayed a melting point of 197 °C.

For `COc1cc2c(cc1OC)C(C)(C)CN=C2c1ccccc1Oc1cc(C(F)(F)F)cc(C(F)(F)F)c1` [Example 8], the IC50 in series [1] was 3160 nM; in series [2] it was 1700 nM.

Consider `COc1cc2c(cc1OC)C(c1ccc(Oc3ccccc3)cc1)=NCC2` (as salt: salt) [Example 1], for which the melting point was 209 to 210 °C.

Regarding `CC1(C)CN=C(c2ccccc2Oc2cc(C(F)(F)F)cc(C(F)(F)F)c2)c2ccccc21` [Example 9, 3,4-dihydro-4,4-dimethyl-1-[2-(3,5-ditrifluoromethyl)phenoxy]phenyl-isoquinoline hydrochloride], the half-inhibitory concentration (IC50) came out at 3980 nM in series [1] and 260 nM in series [2]. The ED50 with rats [3] was determined as 10 mg/kg.

The molecule `COc1ccc2c(c1)C(C)(C)CN=C2c1ccccc1Oc1cc(C(F)(F)F)cc(C(F)(F)F)c1` (as salt: salt) [Example 12] came in with a melting point of 122 to 123 °C.

Consider `COc1cc2c(cc1OC)C(c1ccc(Oc3ccccc3)cc1)=NCC2` [Example 1], for which the IC50 in series [1] is 1860 nM; in series [2], 1800 nM. For the same molecule, the ED50 with rats [3] worked out at 10 mg/kg.

Take `COc1cc2c(cc1OC)C(c1ccc(Oc3ccc(C(F)(F)F)cc3)cc1)=NCC2` [Example 6]: the values for the IC50 in series [1] and in series [2] were 940 nM and 1120 nM, respectively.

With `CCCCCCOc1ccc(C2=NCC(C)(C)c3ccccc32)cc1` (as salt: salt) [Example 11], the melting point is 186 to 187 °C.

With `CCCCCCOc1ccc(C2=NCC(C)(C)c3ccccc32)cc1` [Example 11], in series [1], the IC50 was found to be 3260 nM.

The molecule `COc1cc2c(cc1OC)C(C)(C)CN=C2c1cccc(Oc2cc(C(F)(F)F)cc(C(F)(F)F)c2)c1` (as salt: salt) [Example 14] returned a melting point of 210 to 211 °C.

Consider `COc1cc2c(cc1OC)C(C)(C)CN=C2c1ccc(Oc2ccc(C(F)(F)F)cc2)cc1` [Example 5], for which the ED50 in the series on rats [4] is 10 mg/kg; in the series on rats [3], 15 mg/kg. Moreover, the results for the IC50 in series [1] and in series [2] were 820 nM and 1330 nM, respectively.

Molecule `COc1cc2c(cc1OC)C(c1ccc(Oc3cc(C(F)(F)F)cc(C(F)(F)F)c3)cc1)=NCC2` (as salt: salt) [Example 10] returned a melting point of 215 °C.

As for `FC(F)(F)c1ccc(Oc2ccc(C3=NCCc4ccccc43)cc2)cc1` [Example 17], in series [2], the half-maximal inhibitory concentration (IC50) is 8200 nM.

For `COc1cc2c(cc1OC)C(C)(C)CN=C2c1ccc(Oc2ccccc2)cc1` [Example 4], the melting point was in the range of 141 to 142 °C. Moreover, the IC50 in series [1] turned out to be 1830 nM.

As for `CCCCCCOc1ccc(C2=NCCc3cc(OC)c(OC)cc32)cc1` (as salt: salt) [Example 2], the melting point came to 172 °C.

In the case of `COc1cc2c(cc1OC)C(C)(C)CN=C2c1cccc(Oc2ccccc2)c1` (as salt: salt) [Example 15], the melting point was determined as 181 °C.

`COc1cc2c(cc1OC)C(C)(C)CN=C2c1ccc(Oc2ccc(C(F)(F)F)cc2)cc1` (as salt: salt) [Example 5] registered a melting point of 195 to 198 °C.

Take `COc1cc2c(c(OC)c1OC)CCN=C2c1ccc(Oc2ccccc2)cc1` [Example 3]: in series [1], the IC50 was 1940 nM.

On to `COc1cc2c(c(OC)c1OC)CCN=C2c1ccc(Oc2ccccc2)cc1` (as salt: salt) [Example 3], for which the melting point was in the range of 173 to 175 °C.

With `COc1cc2c(cc1OC)C(C)(C)CN=C2c1cccc(Oc2cc(C(F)(F)F)cc(C(F)(F)F)c2)c1` [Example 14], the IC50 in series [1] came out at 1610 nM.

On to `COc1ccc2c(c1)C(C)(C)CN=C2c1ccccc1Oc1cc(C(F)(F)F)cc(C(F)(F)F)c1` [Example 12], for which the half-maximal inhibitory concentration (IC50) is 5540 nM in series [1] and 1600 nM in series [2].

Molecule `CC1(C)CN=C(c2ccccc2Oc2cc(C(F)(F)F)cc(C(F)(F)F)c2)c2ccccc21` (as salt: hydrochloride) [Example 9, 3,4-dihydro-4,4-dimethyl-1-[2-(3,5-ditrifluoromethyl)phenoxy]phenyl-isoquinoline hydrochloride] gave a melting point of 211 to 212 °C.

The molecule `COc1cc2c(cc1OC)C(C)(C)CN=C2c1ccccc1Oc1cc(C(F)(F)F)cc(C(F)(F)F)c1` (as salt: salt) [Example 8] yielded a melting point of 172 to 173 °C.

Turning to `CCCCCCOc1ccc(C2=NCCc3cc(OC)c(OC)cc32)cc1` [Example 2], the IC50 in series [1] stood at 1200 nM; in series [2], 1090 nM.

In the case of `FC(F)(F)c1ccc(Oc2ccc(C3=NCCc4ccccc43)cc2)cc1` (as salt: salt) [Example 17], the melting point lay in the range of 234 to 235 °C.

Consider `COc1cc2c(cc1OC)C(c1ccc(Oc3ccc(C(F)(F)F)cc3)cc1)=NCC2` (as salt: salt) [Example 6], for which the melting point came to 218 °C.

As to `COc1cc2c(cc1OC)C(C)(C)CN=C2c1cccc(Oc2ccccc2)c1` [Example 15], the IC50 in series [1] amounted to 1620 nM.

As for `COc1cc2c(cc1OC)C(c1ccc(Oc3cc(C(F)(F)F)cc(C(F)(F)F)c3)cc1)=NCC2` [Example 10], the IC50 in series [1] is 1950 nM.

Consider `CC1(C)CN=C(c2ccc(Oc3cc(C(F)(F)F)cc(C(F)(F)F)c3)cc2)c2ccccc21` [Example 16], for which the IC50 in series [2] worked out at 1220 nM.

`CC1(C)CN=C(c2ccc(Oc3cc(C(F)(F)F)cc(C(F)(F)F)c3)cc2)c2ccccc21` (as salt: salt) [Example 16]: the melting point was in the range of 217 to 218 °C.

The IC50 is the concentration at which inhibition is half-maximal. What is called melting point is the temperature of the solid-liquid transition. The term ED50 denotes the midpoint of the dose-response relation.
